Results reported in patent US10292391B2, “Pesticidally active 1,2,4-triazole derivatives with sulphur containing substituents” (Syngenta Participations AG, priority 2015, dated 2019).

Assays:
Assay type in all cases: in vivo
[1] = test system: Spodoptera littoralis (Egyptian Cotton Leaf Worm); test: Activity against Spodoptera littoralis, sprayed cotton leaf discs; conditions: foliar, 72 h, application rate of 200 ppm, L1 larvae, 3 days after infestation, read-out: control (at least one of mortality, anti-feedant effect, and growth inhibition)
Method: Cotton leaf discs were placed on agar in 24-well microtiter plates and sprayed with aqueous test solutions prepared from 10,000 ppm DMSO stock solutions. After drying the leaf discs were infested with five L1 larvae. The samples were assessed for mortality, anti-feedant effect, and growth inhibition in comparison to untreated samples 3 days after infestation. Control of Spodoptera littoralis by a test sample is when at least one of mortality, anti-feedant effect, and growth inhibition is higher than the untreated sample.

[2] = test system: Myzus persicae (Green Peach Aphid); test: Activity against Myzus persicae, sprayed sunflower leaf discs; conditions: foliar, 144 h, application rate of 200 ppm, aphid population of mixed ages, 6 days after infestation
Method: (§1) Sunflower leaf discs were placed on agar in a 24-well microtiter plate and sprayed with aqueous test solutions prepared from 10,000 ppm DMSO stock solutions. After drying, the leaf discs were infested with an aphid population of mixed ages. The samples were assessed for mortality 6 days after infestation.

[3] = test system: Euschistus heros(Neotropical Brown Stink Bug); test: Activity against Euschistus heros, sprayed soybean leaf; conditions: 120 h, application rate of 200 ppm, N-2 nymphs, 5 days after infestation, read-out: effect in at least one of the two categories (mortality or growth inhibition)
Method: Soybean leaf on agar in 24-well microtiter plates were sprayed with aqueous test solutions prepared from 10,000 ppm DMSO stock solutions. After drying the leaf were infested with N-2 nymphs. The samples were assessed for mortality and growth inhibition in comparison to untreated samples 5 days after infestation.

[4] = test system: Myzus persicae (Green Peach Aphid); test: Activity against Myzus persicae, systemic via roots of pea seedlings; conditions: 144 h, test rate of 24 ppm, roots of pea seedlings in test solution, 6 days
Method: Roots of pea seedlings infested with an aphid population of mixed ages were placed directly in the aqueous test solutions prepared from 10,000 DMSO stock solutions. The samples were assessed for mortality 6 days after placing seedlings in test solutions.

[5] = test system: Plutella xylostella (Diamond Back Moth); test: Activity against Plutella xylostella, treated artificial diet; conditions: 120 h, application rate of 200 ppm, L2 larvae, 5 days after infestation, read-out: effect in at least one of the two categories (mortality or growth inhibition)
Method: (§2) 24-well microtiter plates with artificial diet were treated with aqueous test solutions prepared from 10,000 ppm DMSO stock solutions by pipetting. After drying, the plates were infested with L2 larvae (10 to 15 per well). The samples were assessed for mortality and growth inhibition in comparison to untreated samples 5 days after infestation.

[6] = test system: Frankliniella occidentalis (Western Flower Thrips); test: Activity against Frankliniella occidentalis, sprayed sunflower leaf discs; conditions: foliar, 168 h, application rate of 200 ppm, population of mixed ages, 7 days after infestation
Method: as §1, with “in” for “in a”, “plates” for “plate”, “10,000” for “10,000 ppm”, “drying” for “drying,”, “a Frankliniella” for “an aphid”, “7” for “6”

[7] = test system: Spodoptera littoralis (Egyptian Cotton Leaf Worm); test: Activity against Spodoptera littoralis, systemic via lettuce grown on treated agar; conditions: 144 h, test rate of 12.5 ppm, root uptake by lettuce, 6 days after infestation, read-out: effect in at least one of the three categories (mortality, anti-feedancy, or growth inhibition)
Description: Test compounds were applied by pipette from 10,000 ppm DMSO stock solutions into 24-well plates and mixed with agar. Lettuce seeds were placed on the agar and the multi well plate was closed by another plate which contains also agar. After 7 days the roots have absorbed the compound and the lettuce has grown into the lid plate. The lettuce leafs were now cut off into the lid plate. Spodoptera eggs were pipetted through a plastic stencil on a humid gel blotting paper and the plate closed with it. The samples were assessed for mortality, anti-feedant effect and growth inhibition in comparison to untreated samples 6 days after infestation.

[8] = test system: Diabrotica Balteata (Corn Root Worm); test: Activity against Diabrotica balteata, sprayed maize sprouts; conditions: 96 h, application rate of 200 ppm, L2 larvae, 4 days after infestation, read-out: effect in at least one of the two categories (mortality or growth inhibition)
Method: as §2, with “Maize sprouts, placed on an agar layer in 24-well” for “24-well”, “plates” for “plates with artificial diet”, “spraying.” for “pipetting.”, “(6” for “(10”, “10” for “15”, “4” for “5”

[9] = test system: Bemisia tabaci (Cotton White Fly); test: Activity against Bemisia tabaci, sprayed cotton leaf discs; conditions: foliar, 144 h, application rate of 200 ppm, adult white flies, 6 days after incubation
Method: Cotton leaf discs were placed on agar in 24-well microtiter plates and sprayed with aqueous test solutions prepared from 10,000 ppm DMSO stock solutions. After drying the leaf discs were infested with adult white flies. The samples were checked for mortality 6 days after incubation.

[10] = test system: Thrips tabaci (Onion Thrips); test: Activity against Thrips tabaci, sprayed sunflower leaf discs; conditions: foliar, 144 h, application rate of 200 ppm, thrips population of mixed ages, 6 days after infestation
Method: as §1, with “in” for “in a”, “plates” for “plate”, “drying” for “drying,”, “a thrips” for “an aphid”

CCS(=O)(=O)c1cc(-c2ncccn2)cnc1-c1nnc(-c2cc(C(F)(F)F)ccn2)n1C [Compound P9, 2-[5-ethylsulfonyl-6-[4-methyl-5-[4-(trifluoromethyl)-2-pyridyl]-1,2,4-triazol-3-yl]-3-pyridyl]pyrimidine]
≥ 80%: mortality at 200 ppm [1] | mortality at 200 ppm [2] | percent effect (mortality or growth inhibition) at 200 ppm [3] | mortality at 24 ppm [4] | percent effect (mortality or growth inhibition) at 200 ppm [5] | mortality at 200 ppm [6] | percent control (mortality, anti-feedancy or growth inhibition) at 12.5 ppm [7] | percent effect (mortality or growth inhibition) at 200 ppm [8]

CCS(=O)(=O)c1ccc(-n2cncn2)nc1-c1nnc(-c2cc(C(F)(F)F)ccn2)n1C [Compound P37]
≥ 80%: mortality at 200 ppm [1] | mortality at 200 ppm [2] | percent effect (mortality or growth inhibition) at 200 ppm [3] | mortality at 24 ppm [4] | percent effect (mortality or growth inhibition) at 200 ppm [5] | mortality at 200 ppm [9] | percent effect (mortality or growth inhibition) at 200 ppm [8]

C=C(OCC)c1cnc(-c2nnc(-c3cc(C(F)(F)F)ccn3)n2C)c(S(=O)(=O)CC)c1 [Compound P13]
≥ 80%: mortality at 200 ppm [1] | mortality at 200 ppm [2] | percent effect (mortality or growth inhibition) at 200 ppm [5] | mortality at 200 ppm [6] | mortality at 200 ppm [10] | percent effect (mortality or growth inhibition) at 200 ppm [8]

CCS(=O)(=O)c1cc(-n2cnc(C#N)c2)cnc1-c1nnc(-c2cc(C(F)(F)F)ccn2)n1C [Compound P15]
≥ 80%: mortality at 24 ppm [4] | mortality at 200 ppm [10]

CCS(=O)(=O)c1ccc(-n2cncn2)nc1-c1nnc(-c2cc(C(F)(F)F)ncn2)n1C [Compound P47]
≥ 80%: mortality at 200 ppm [2] | percent effect (mortality or growth inhibition) at 200 ppm [3] | mortality at 24 ppm [4] | percent effect (mortality or growth inhibition) at 200 ppm [8]

CCS(=O)(=O)c1cc(C2CC2)cnc1-c1nnc(-c2cc(C(F)(F)F)ccn2)n1C [Compound P29, 5-cyclopropyl-3-ethylsulfonyl-2-[4-methyl-5-[4-(trifluoromethyl)-2-pyridyl]-1,2,4-triazol-3-yl]pyridine]
≥ 80%: mortality at 200 ppm [1] | mortality at 200 ppm [2] | mortality at 24 ppm [4] | percent effect (mortality or growth inhibition) at 200 ppm [5] | mortality at 200 ppm [10] | percent control (mortality, anti-feedancy or growth inhibition) at 12.5 ppm [7] | percent effect (mortality or growth inhibition) at 200 ppm [8]

CCS(=O)(=O)c1cc(-c2ccc(Cl)cn2)cnc1-c1nnc(-c2cc(C(F)(F)F)ccn2)n1C [Compound P25]
≥ 80%: mortality at 200 ppm [1] | percent effect (mortality or growth inhibition) at 200 ppm [3] | percent effect (mortality or growth inhibition) at 200 ppm [5] | mortality at 200 ppm [10] | percent control (mortality, anti-feedancy or growth inhibition) at 12.5 ppm [7] | percent effect (mortality or growth inhibition) at 200 ppm [8]

CCS(=O)(=O)c1ccc(-c2ccc(C(F)(F)F)cc2)nc1-c1nnc(-c2cc(C(F)(F)F)ccn2)n1C [Compound P32, 3-ethylsulfonyl-2-[4-methyl-5-[4-(trifluoromethyl)-2-pyridyl]-1,2,4-triazol-3-yl]-6-[4-(trifluoromethyl)phenyl]pyridine]
≥ 80%: mortality at 200 ppm [1] | percent effect (mortality or growth inhibition) at 200 ppm [5] | mortality at 200 ppm [9] | mortality at 200 ppm [10] | percent effect (mortality or growth inhibition) at 200 ppm [8]

CCS(=O)(=O)c1cc(-n2cncn2)cnc1-c1nnc(-c2cc(C(F)(F)F)ncn2)n1C [Compound P46]
≥ 80%: mortality at 200 ppm [2] | mortality at 24 ppm [4] | mortality at 200 ppm [6] | percent effect (mortality or growth inhibition) at 200 ppm [8]

CCS(=O)(=O)c1ccc(-n2cnc(Cl)n2)nc1-c1nnc(-c2cc(C(F)(F)F)ncn2)n1C [Compound P48, 4-[5-[6-(3-chloro-1,2,4-triazol-1-yl)-3-ethylsulfonyl-2-pyridyl]-4-methyl-1,2,4-triazol-3-yl]-6-(trifluoromethyl)pyrimidine]
≥ 80%: mortality at 200 ppm [1] | mortality at 200 ppm [2] | percent effect (mortality or growth inhibition) at 200 ppm [3] | percent effect (mortality or growth inhibition) at 200 ppm [5] | mortality at 200 ppm [9] | mortality at 200 ppm [6] | percent control (mortality, anti-feedancy or growth inhibition) at 12.5 ppm [7] | percent effect (mortality or growth inhibition) at 200 ppm [8]

CCS(=O)(=O)c1ccc(-c2ncccn2)nc1-c1nnc(-c2cc(C(F)(F)F)ncn2)n1C [Compound P54]
≥ 80%: mortality at 200 ppm [2] | percent effect (mortality or growth inhibition) at 200 ppm [3] | mortality at 24 ppm [4] | percent effect (mortality or growth inhibition) at 200 ppm [5] | mortality at 200 ppm [6] | percent effect (mortality or growth inhibition) at 200 ppm [8]

CCS(=O)(=O)c1ccc(-c2ncccn2)nc1-c1nnc(-c2cc(C(F)(F)F)ccn2)n1C [Compound P39]
≥ 80%: mortality at 200 ppm [1] | mortality at 200 ppm [2] | percent effect (mortality or growth inhibition) at 200 ppm [3] | mortality at 24 ppm [4] | percent effect (mortality or growth inhibition) at 200 ppm [5] | percent control (mortality, anti-feedancy or growth inhibition) at 12.5 ppm [7] | percent effect (mortality or growth inhibition) at 200 ppm [8]

CCS(=O)(=O)c1cc(-c2ccc(C#N)cn2)cnc1-c1nnc(-c2cc(C(F)(F)F)ccn2)n1C [Compound P22]
≥ 80%: mortality at 200 ppm [1] | mortality at 200 ppm [2] | percent effect (mortality or growth inhibition) at 200 ppm [3] | percent effect (mortality or growth inhibition) at 200 ppm [5] | mortality at 200 ppm [6] | mortality at 200 ppm [10] | percent control (mortality, anti-feedancy or growth inhibition) at 12.5 ppm [7] | percent effect (mortality or growth inhibition) at 200 ppm [8]

CCS(=O)(=O)c1cc(-c2cc(Cl)ccn2)cnc1-c1nnc(-c2cc(C(F)(F)F)ccn2)n1C [Compound P26]
≥ 80%: mortality at 200 ppm [1] | mortality at 200 ppm [2] | percent effect (mortality or growth inhibition) at 200 ppm [3] | percent effect (mortality or growth inhibition) at 200 ppm [5] | mortality at 200 ppm [6] | mortality at 200 ppm [10] | percent control (mortality, anti-feedancy or growth inhibition) at 12.5 ppm [7] | percent effect (mortality or growth inhibition) at 200 ppm [8]

CCS(=O)(=O)c1cc(-c2cc(C#N)ccn2)cnc1-c1nnc(-c2cc(C(F)(F)F)ccn2)n1C [Compound P23]
≥ 80%: mortality at 200 ppm [1] | mortality at 200 ppm [2] | percent effect (mortality or growth inhibition) at 200 ppm [3] | mortality at 24 ppm [4] | percent effect (mortality or growth inhibition) at 200 ppm [5] | mortality at 200 ppm [6] | mortality at 200 ppm [10] | percent control (mortality, anti-feedancy or growth inhibition) at 12.5 ppm [7] | percent effect (mortality or growth inhibition) at 200 ppm [8]

CCS(=O)(=O)c1cc(-n2cc(Cl)cn2)cnc1-c1nnc(-c2cc(C(F)(F)F)ccn2)n1C [Compound P7]
≥ 80%: mortality at 200 ppm [1] | mortality at 200 ppm [2] | percent effect (mortality or growth inhibition) at 200 ppm [3] | percent effect (mortality or growth inhibition) at 200 ppm [5] | mortality at 200 ppm [6] | mortality at 200 ppm [10] | percent control (mortality, anti-feedancy or growth inhibition) at 12.5 ppm [7] | percent effect (mortality or growth inhibition) at 200 ppm [8]
